Series [1] deals with T1, human MC3 receptor (Homo sapiens, UniProt P41968).
T1 construct: stably transfected with full length cDNA encoding human MC1 or MC3 receptors; expressed in transfected cells; host or cells: Chinese hamster ovary cell line (MC3; 'respectively')
The experiment in a line: In vitro agonist potency (EC50) against melanocortin receptor type 3, cAMP in recombinant cell line. The class given is cell-based. The following applies: cell line stably transfected with human MC3, 1 hour at 37° C.

Series [2] in a line: In vitro metabolism rate determination, human liver microsome (HLM) assay. The class given is in vitro ADME. Particulars: human liver microsomes, substrate 1 μM; read-out: HLM (intrinsic clearance). A general note: Liver microsomes are vesicles of endoplasmic reticulum, rich in cytochrome P450 enzymes.

T1 sequence (P41968 whole entry): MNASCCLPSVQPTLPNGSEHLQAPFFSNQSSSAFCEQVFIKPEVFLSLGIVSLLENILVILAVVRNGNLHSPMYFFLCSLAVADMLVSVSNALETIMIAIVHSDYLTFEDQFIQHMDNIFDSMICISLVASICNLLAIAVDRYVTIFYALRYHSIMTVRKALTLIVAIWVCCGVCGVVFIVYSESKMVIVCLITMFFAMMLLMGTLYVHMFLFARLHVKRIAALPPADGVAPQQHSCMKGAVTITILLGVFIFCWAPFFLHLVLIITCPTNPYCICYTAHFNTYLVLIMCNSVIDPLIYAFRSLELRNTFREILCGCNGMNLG

A word on the EC50: it is the midpoint of the concentration-response curve. For the compound `COc1ccc(N2CC(C(=O)N3CC(C)C(O)(C4CC4)C(C)C3)C(c3ccc(Cl)cn3)C2)nn1` (centres unmarked) [Example 26], the EC50 in series [1] was 4210 nM. The microsomal CLint at 1 μM in series [2] came out at 70 µL/min/mg.

Take `CC1CN(C(=O)C2CN(c3ccc(=O)[nH]n3)CC2c2ccc(Cl)cn2)CC(C)C1(O)c1ccccc1` (centres unmarked) [Example 27]: the EC50 in series [1] came out at 390 nM. In series [2], the microsomal CLint at 1 μM amounted to 51 µL/min/mg.

Take `C[C@@H]1CN(C(=O)[C@@H]2CN(c3ccc(=O)[nH]n3)C[C@H]2c2ccc(Cl)cn2)C[C@H](C)[C@@]1(O)c1ccccn1` [Example 28]: the EC50 in series [1] came to 938 nM. Besides, in series [2], the microsomal CLint at 1 μM was 33 µL/min/mg.

As for `CC1CN(C(=O)C2CN(c3ccc(C#N)nn3)CC2c2ccc(Cl)cn2)CC(C)C1(O)c1ccccn1` (centres unmarked) [Example 30], the EC50 in series [1] worked out at 61.5 nM. In addition, the microsomal CLint at 1 μM in series [2] was found to be 141 µL/min/mg.

For `C[C@@H]1CN(C(=O)[C@@H]2CN(c3ccc(Cl)nn3)C[C@H]2c2ccc(Cl)cn2)C[C@H](C)[C@@]1(O)c1ccccn1` [Example 31], in series [1], the concentration giving a half-maximal response (EC50) is 410 nM. Further, in series [2], the microsomal CLint at 1 μM was found to be 188 µL/min/mg.

Turning to `C[C@@H]1CN(C(=O)[C@@H]2CN(c3ccc(C#N)nn3)C[C@H]2c2ccc(F)cn2)C[C@H](C)[C@@]1(O)c1ccc(Cl)cc1` [Example 32], the EC50 in series [1] was found to be 76.6 nM. Also, in series [2], the microsomal CLint at 1 μM came to 8 µL/min/mg.

As to `CC1CN(C(=O)C2CN(c3ccc(C#N)nn3)CC2c2ccc(F)cn2)CC(C)C1(O)c1ccccc1` (centres unmarked) [Example 33], the EC50 in series [1] was determined as 193 nM. Also, in series [2], the microsomal CLint at 1 μM is 186 µL/min/mg.

`C[C@@H]1CN(C(=O)[C@@H]2CN(c3ccc(Cl)nn3)C[C@H]2c2ccc(F)cn2)C[C@H](C)[C@@]1(O)c1ccccc1` [Example 35]: the EC50 in series [1] turned out to be 878 nM. For the same compound, the microsomal CLint at 1 μM in series [2] was 100 µL/min/mg.

On to `CC1CN(C(=O)C2CN(c3ccc(=O)[nH]n3)CC2c2ccc(F)cn2)CC(C)C1(O)c1ccccc1` (centres unmarked) [Example 37], for which the EC50 in series [1] amounted to 325 nM. For the same compound, the microsomal CLint at 1 μM in series [2] worked out at 19.5 µL/min/mg.

As for `CC1CN(C(=O)C2CN(c3ccc(=O)n(C)n3)CC2c2ccc(F)cn2)CC(C)C1(O)c1ccccc1` (centres unmarked) [Example 39], the EC50 in series [1] was determined as 2100 nM. Also, the microsomal CLint at 1 μM in series [2] stood at 95 µL/min/mg.

`CC1CN(C(=O)C2CN(c3ccc(=O)n(C)n3)CC2c2ccc(F)cn2)CC(C)C1(O)c1ccc(F)cc1` (centres unmarked) [Example 40]: the EC50 in series [1] came out at 580 nM. Besides, the microsomal CLint at 1 μM in series [2] is under 7 µL/min/mg.

As for `COc1ccc([C@@H]2CN(c3ccc(=O)[nH]n3)C[C@H]2C(=O)N2C[C@@H](C)[C@](O)(c3ccc(Cl)cn3)[C@@H](C)C2)nc1` [Example 41], in series [1], the EC50 is over 33300 nM. Also, in series [2], the microsomal CLint at 1 μM turned out to be 21 µL/min/mg.

As to `COc1ccc(C2CN(c3ccc(=O)[nH]n3)CC2C(=O)N2CC(C)C(O)(c3ccc(F)cc3)C(C)C2)nc1` (centres unmarked) [Example 42], the EC50 in series [1] is over 20300 nM. Further, the microsomal CLint at 1 μM in series [2] turned out to be 25 µL/min/mg.

On to `COc1ccc([C@@H]2CN(c3ccc(C#N)nn3)C[C@H]2C(=O)N2C[C@@H](C)[C@](O)(c3ccc(F)cc3)[C@@H](C)C2)nc1` [Example 43], for which the EC50 in series [1] worked out at 1590 nM. The microsomal CLint at 1 μM in series [2] was found to be 37 µL/min/mg.

In the case of `CC1CN(C(=O)C2CN(c3ccc(C#N)cn3)CC2c2ccc(C#N)cn2)CC(C)C1(O)c1ccc(F)cc1` (centres unmarked) [Example 45], in series [1], the EC50 was 66.1 nM. In addition, the microsomal CLint at 1 μM in series [2] is under 7 µL/min/mg.

As to `C[C@@H]1CN(C(=O)[C@@H]2CN(c3ccc(C#N)nn3)C[C@H]2c2ccc(C#N)cn2)C[C@H](C)[C@@]1(O)c1ccc(F)cc1` [Example 46], in series [1], the EC50 amounted to 50.8 nM. Moreover, the microsomal CLint at 1 μM in series [2] is under 7 µL/min/mg.

Source of the values: patent publication US8138188B2, “Melanocortin type 4 receptor agonist piperidinoylpyrrolidines” (Pfizer Inc., priority 2006, dated 2012).
